Experiment [1] has as its target His×6-YY1 (Homo sapiens, UniProt P25490). In words: GST pull-down of His×6-YY1 by GST-EZH2 mutants. In kind it is binding. As to conditions: 1.0 µg His×6-YY1, 4 h. From the text:
(§1) HA-tagged expression vectors of wild-type (wt) and mutant YY1 were constructed by amplifying and subcloning the corresponding fragments of the YY1 coding region into the pcDNA3 vector. To generate EZH2 mutants, different regions of its coding sequence (1–251, 252–384, 385–618, 619–751, 385–465, 465–545, 545–618, 465–492, and 465–519) were amplified and subcloned into pGEX-4T-1 and pSL4-3×Flag plasmids to construct vectors expressing recombinant GST-EZH2 and 3×Flag-EZH2 mutants, respectively. To generate vectors expressing 3×Flag-YPB, -OPB, and -Cont (with a scrambled sequence of […]) peptides, their coding sequences were individually subcloned into a lentiviral vector pSL4 using the CMV promoter to drive the expression of 3×Flag-YPB-2A1-EGFP, 3×Flag-OPB-2A1-EGFP, and 3×Flag-Cont-2A1-EGFP. […] Two shRNAs against PTENP1 (shPTENP1-1 and shPTENP1-2, with target sequences of […] and […], respectively), and one control shRNA (with a scrambled target sequence of […]) driven by the U6 promoter were generated in a lentiviral vector with a puromycin selection marker as we previously described. In addition, we also generated lentiviruses expressing two shRNAs (shYY1-1 and shYY1-2, with target sequences of […] and […], respectively), and two EZH2 (shEZH2-1 and shEZH2-2, with target sequences of […] and […]-[…], respectively).
The GST fusion protein expressed in E. coli was lysed with the binding buffer (20 mM Tris⋅HCl, pH 7.5, 150 mM NaCl, 0.1% Nonidet P-40, 1 mM dithiothreitol, 10% glycerol, 1 mM EDTA, 2.5 mM MgCl2, and 1 µg/mL leupeptin) for 30 min at 4 °C. Glutathione-Sepharose beads (Thermo Fisher Scientific) were incubated with bacterial lysates containing expressed recombinant GST-EZH2 mutant proteins for 4 h at 4 °C. After extensive washing of the beads, 1.0 µg of purified His×6-YY1 was added, and the samples were incubated for another 4 h. The washed beads with bound proteins were resuspended in an SDS-containing sample buffer and analyzed by SDS-PAGE.

Experiment [2] concerns HA-YY1. The experiment can be described thus: Co-IP of Flag-EZH2 wt/mutants with HA-YY1. The format is binding. As to conditions: co-IP, Flag-tagged EZH2 and HA-YY1.
Text: as §1
Immunoprecipitations were performed as described previously. Cells were harvested and lysed in cell lysis buffer (50 mM Tris⋅HCl, pH 7.5, 150 mM NaCl, 1% Nonidet P-40, 0.5% sodium deoxycholate, and 1% protease inhibitor cocktails, Sigma-Aldrich). […] In Western blot studies, protein concentrations of samples were determined using the Bradford protein method, and 20 μg of proteins for each sample were separated by SDS-PAGE followed by transfer to polyvinylidene difluoride (PVDF) membranes. […]
Figure 1 Identification of YY1 binding site on EZH2 protein. […] The samples were analyzed by Western blot using EZH2 and YY1 antibodies as indicated. […]

Experiment [3] relates to breast cancer cells (MCF-7, MDA-MB-231, MDA-MB-453). In words: Annexin V-FITC/PI apoptosis, breast cancer cells together. In kind it is cell-based. As to conditions: peptides 30 μM (no FITC), tamoxifen 15 µM, 48 h; vs Cont. The method, then: The cells were collected by trypsinization and washed twice by ice-cold PBS, followed by Annexin V-FITC and propidium iodide (PI) staining for 10 min using the reagents in an Annexin V-FITC Apoptosis Detection Kit (Vazyme Biotech Co. Ltd., Nanjing, China). The ratios of apoptotic cells were evaluated using flow cytometry (AccuriC6, BD Biosciences, San Jose, CA, USA).

Experimental findings from PMC8156467, “Disruption of YY1-EZH2 Interaction Using Synthetic Peptides Inhibits Breast Cancer Development” (Cancers, 2021) are described below.

Sequence of His×6-YY1 (P25490 whole entry, the tested form may be a part): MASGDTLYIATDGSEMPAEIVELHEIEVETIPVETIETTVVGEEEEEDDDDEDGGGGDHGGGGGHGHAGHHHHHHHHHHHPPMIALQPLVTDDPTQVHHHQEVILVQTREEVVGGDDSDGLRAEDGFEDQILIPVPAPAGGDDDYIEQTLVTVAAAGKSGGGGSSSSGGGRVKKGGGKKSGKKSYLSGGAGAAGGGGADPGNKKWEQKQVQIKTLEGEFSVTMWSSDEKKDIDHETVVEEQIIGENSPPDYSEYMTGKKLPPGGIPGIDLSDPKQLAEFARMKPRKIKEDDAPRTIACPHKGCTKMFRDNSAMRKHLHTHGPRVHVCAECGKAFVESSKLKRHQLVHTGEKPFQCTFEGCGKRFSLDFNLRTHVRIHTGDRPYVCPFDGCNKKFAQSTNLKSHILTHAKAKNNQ

In the case of “GST-EZH2 (385–618): GST fusion of EZH2 residues 385–618”, the “interaction with His×6-YY1 in GST pull-down” value in experiment [1] was “could interact with His×6-YY1”. In the case of “(385–618): Flag-tagged EZH2 region 385–618”, in experiment [2], the “interaction with HA-YY1 in co-IP” value is given as “could bring down HA-YY1”. Turning to “GST-EZH2 (465–545): GST fusion of EZH2 residues 465–545”, the “interaction with His×6-YY1 in GST pull-down” value in experiment [1] is reported as “could also pull down His×6-YY1”. Still for that read-out and setting: the result for “GST-EZH2 (465–519): GST fusion of EZH2 residues 465–519” reads “could interact with His×6-YY1”. On to `CC/C(=C(\c1ccccc1)c1ccc(OCCN(C)C)cc1)c1ccccc1` [tamoxifen], for which, in experiment [3], the “pro-apoptotic portions of breast cancer cells” value is given as “could significantly increase the pro-apoptotic portions”.

For the compound “Flag-EZH2 wt: Flag-tagged wild-type EZH2”, the “interaction with HA-YY1 in co-IP” value in experiment [2] was “could bring down HA-YY1”. Still for that read-out and setting: the result for “EZH2 (465–545): Flag-tagged EZH2 mutant 465–545” reads “could interact with HA-YY1”.
